We go through 2 molecules from paper PMC10997566, “Kinetic profiling of novel spirobenzo-oxazinepiperidinone derivatives as equilibrative nucleoside transporter 1 inhibitors” (Purinergic Signalling, 2023).

The structures appear in SMILES notation.

This experiment concerns the target T1, hENT1 (Homo sapiens, UniProt Q99808).
T1 sequence (Q99808 1-456): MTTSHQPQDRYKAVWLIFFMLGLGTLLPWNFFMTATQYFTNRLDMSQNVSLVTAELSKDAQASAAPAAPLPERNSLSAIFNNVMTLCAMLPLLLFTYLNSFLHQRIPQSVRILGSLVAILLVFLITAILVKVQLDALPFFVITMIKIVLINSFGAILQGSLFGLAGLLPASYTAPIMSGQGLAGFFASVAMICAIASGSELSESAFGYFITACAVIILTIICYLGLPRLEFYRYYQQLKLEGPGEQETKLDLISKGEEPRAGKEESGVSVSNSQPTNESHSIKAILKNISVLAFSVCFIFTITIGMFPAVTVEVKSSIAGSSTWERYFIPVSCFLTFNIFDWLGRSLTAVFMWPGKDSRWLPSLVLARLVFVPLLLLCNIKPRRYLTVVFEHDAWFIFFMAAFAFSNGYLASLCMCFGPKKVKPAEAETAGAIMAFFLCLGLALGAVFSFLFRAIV
The experiment in a line: biochemical.

With `Nc1cc2c(cc1Cl)C(=O)NC1(CCN(CCNC(=O)c3c(Cl)cccc3Cl)CC1)O2` [Compound 1], the affinity corresponds to a Ki of 145 nM. Consider `O=C1NC2(CCN(CCNC(=O)c3c(Cl)cccc3Cl)CC2)Oc2cc(O)c(Cl)cc21` [Compound 20], for which the inhibition constant (Ki) (in general, the dissociation constant of the complex between target and ligand, obtained from inhibition or displacement) is 1040 nM.
